# Results published in patent US7432247B2, “Methods of cardioprotection using dichloroacetate in combination with an inotrope” (The Governors of the University of Alberta, priority 2002, dated 2008).
# Where “and” joins values, the source holds several entries; their conditions need not be identical. Equal entries are not always repeated.
# How the values were obtained:
# Format in all cases: in vivo, human
# [1] = Pediatric heart surgery study, DCA bolus and infusion vs placebo: inotrope score, ICU time, ventilator time (Example C); parameters: reduction of Inotrope Score compared to placebo: concentration or dose not given beside the values; settings: for average decrease in Inotrope Score per patient compared to placebo: over the 24 hour period
# Protocol: This study was a randomized, placebo-controlled, double blinded, single surgeon, study of the use of DCA in 51 high-risk pediatric patients requiring heart surgery to correct complex congenital heart lesions.
# (§1) In this trial, 53 infants were recruited to participate in a study, of which 51 patients met inclusion criteria after parental consent. Two dosing groups resulted from the study team changing the dosing protocol after the data from the initial 10 patients were analyzed. The data from patients number 1 to number 10 was analyzed for DCA therapeutic blood levels and therapeutic effect. A recommendation by the research team was made to increase the bolus dose of DCA and to decrease the infusion dose of DCA to maintain a DCA dose range of 1 mM for 24 hours. The intent was to administer the new protocol at patient number 20. The 1997 Epicore power calculations were based on separation of the study groups patients into group A of n=20 patients and Group B of n=31 patients
# (§2) DCA (50 mg/kg) or placebo was injected into the aortic root immediately prior to removing aortic cross clamp. The coded solutions were made such that a dose of 1 ml/kg provided either a DCA therapeutic level of 1 mM plasma concentration of DCA, or a placebo solution. Immediately thereafter, an infusion of DCA at 25 mg/kg/hr or placebo in the same volume was initiated and run for 24 hours. Based on the pharmacokinetics of DCA, this was expected to maintain plasma levels of DCA in the therapeutic range of (0.2-1 mM). However, the plasma concentrations of DCA were below 1 mM after the first hour interval, and that the 24 hour plasma concentrations were elevated above 1 mM DCA levels at the 24 hour interval, a decision was made to modify the dosing protocol. This change in dosing protocol was approved by the Ethics Committee, but not implemented until patient number 24. All blood samples were analyzed by HPLC for DCA concentration. • (ii) Group B
# (§3) DCA (100 mg/kg) or placebo was injected into the aortic root immediately prior to removing aortic cross clamp. The coded solutions were made such that a dose of 1 ml/kg provided either a DCA therapeutic level of 1 mM plasma concentration of DCA, or a placebo solution. Immediately thereafter, an infusion of DCA at 12.5 mg/kg/hr or placebo in the same volume was initiated and run for 24 hours. Based on the pharmacokinetics of DCA, this was expected to maintain plasma levels of DCA in the therapeutic range of (0.2-1 mM). All blood samples were analyzed by HPLC for DCA concentration.
# In both the operating room at the end of cardiopulmonary bypass and in the intensive care unit, parenteral drugs were scored on an hourly basis with 1 point allotted for each level for each bolus or infusion given within the previous hour within the first 24 hours post-operatively. Thus at the end of 24 hours, high scores indicated poorer cardiac function.
# [2] = DCA plasma levels in pediatric heart surgery patients, bolus and 24 hour infusion (Example C); settings: for Average Optimum Mean of DCA Plasma Levels, mM at 1 hr / Average Optimum Mean of DCA Plasma Levels, mM at 6 hr / Average Optimum Mean of DCA Plasma Levels, mM at 12 hr / Average Optimum Mean of DCA Plasma Levels, mM at 24 hr: patients with greatest degree of clinical benefits
# Protocol: as §1, §2, §3
# Arterial blood samples were obtained from patients at the following times:
# c. One hour after discontinuing cardiopulmonary bypass.
# d. Six hours after discontinuing cardiopulmonary bypass
# e. Twelve hours after discontinuing cardiopulmonary bypass.
# f. Twenty four hours after discontinuing cardiopulmonary bypass.
# Blood samples were collected from indwelling arterial lines into citrate-containing tubes (0.5 ml blood samples). The samples were spun in the microfuge, the plasma separated, and frozen immediately for later analysis. All plasma samples were stored at −80 degrees centigrade, until further processing. Plasma glucose and lactate were determined using a Sigma glucose kit and a spectrophotometric assay involving lactate dehydrogenase respectively. Plasma fatty acid levels were measured using an ELISA system and WAKO free fatty acid kit.
# [3] = Plasma DCA levels after 50 mg/kg bolus in adult CABG patients (Example A); settings: 50 mg/kg Na+ dichloroacetate, 1 hour following administration, n = 8 adult patients
# Protocol: […] Based on the pharmacokinetics of DCA, we anticipated that this would produce a plasma concentration of approximately 1 mM. The study consisted of 8 DCA-treated patients and 10 placebo-treated patients.
# […] The coded solution was made such that a dose of 1 ml/kg provides the appropriate dose of DCA or placebo. Based on the pharmacokinetics of DCA, this was expected to result in a plasma level of DCA in the therapeutic range of (1 mM). All blood samples were analyzed by HPLC for DCA concentration.
# Plasma samples were processed for DCA levels using a high performance liquid chromatography (HPLC) technique that separated the DCA from other plasma constituents. In brief, 20 μl of plasma sample was injected into a Beckman Gold HPLC containing a IonoBpher 5A column (250×4.6 mm LxID) and a AX Guard Column. The mobile phase of the column consisted of 10^-3 M pyromellitate buffer (pH=4.0). The flow rate of the HPLC was set at 3.0 ml/min and the DCA eluted from the column was detected by comparing DCA elution times to acetate, monochloroacetate, and trichloroacetate standards. Heart ventricular biopsy samples were taken at 0, and 20 minutes, and at 1 hour, following release of the cross clamp and reperfusion of the heart muscle, and immediately frozen in liquid N2. Blood samples were also taken at various intervals during the reperfusion period between 0 to 24 hours post-surgery.
# [4] = Observed side effects of DCA in patients
# [5] = Mortality in the adult CABG study (Example A); settings: DCA group, 8 adult patients, 50 mg/kg bolus
# Protocol: DCA or saline was administered to 18 patients undergoing elective cardiac bypass grafting surgery (CABG) in a double blinded randomized manner DCA (50 mg/kg in 100 ml of saline) or placebo was injected into the aortic root, immediately prior to removing aortic cross clamp. Based on the pharmacokinetics of DCA, we anticipated that this would produce a plasma concentration of approximately 1 mM. The study consisted of 8 DCA-treated patients and 10 placebo-treated patients.
# The intervention involved DCA (50 mg/kg) or placebo injected into the aortic root immediately prior to removing aortic cross clamp. The coded solution was made such that a dose of 1 ml/kg provides the appropriate dose of DCA or placebo. Based on the pharmacokinetics of DCA, this was expected to result in a plasma level of DCA in the therapeutic range of (1 mM). All blood samples were analyzed by HPLC for DCA concentration.
# [6] = Group A: 50 mg/kg bolus and 25 mg/kg/hour infusion
# [7] = Group A: 50 mg/kg bolus and 25 mg/kg/hour infusion, 23 patients
# [8] = Group B: 100 mg/kg bolus and 12.5 mg/kg/hour infusion
# [9] = Group B: 100 mg/kg bolus and 12.5 mg/kg/hour infusion, 24 patients
# [10] = Group A: 50 mg/kg bolus and 25 mg/kg/hr infusion
# [11] = Group B: 100 mg/kg bolus and 12.5 mg/kg/hr infusion
compound,measurement,setting,value
"O=C(O)C(Cl)Cl [DCA, dichloroacetate]",decrease of ventilator time compared to placebo,[1]; [6],47%
same,reduction of ventilator time compared to placebo,[1]; [6],46 h
same,decrease of time in ICU compared to placebo,[1]; [7],41%
same,reduction of time in ICU compared to placebo,[1]; [7],60 h
same,reduction of Inotrope Score compared to placebo,"[1]; Group A, by 1 hour",50%
same,reduction of Inotrope Score compared to placebo,"[1]; Group A, by 12 hours",45%
same,reduction of Inotrope Score compared to placebo,"[1]; Group A, by 24 hours",38%
same,average decrease in Inotrope Score per patient compared to placebo,[1]; Group A,44%
same,decrease of ventilator time compared to placebo,[1]; [8],23%
same,reduction of ventilator time compared to placebo,[1]; [8],18 h and 19 h
same,decrease of time in ICU compared to placebo,[1]; [9],40%
same,reduction of time in ICU compared to placebo,[1]; [9],50 h
same,reduction of Inotrope Score compared to placebo,"[1]; Group B, by 1 hour",57%
same,reduction of Inotrope Score compared to placebo,"[1]; Group B, by 12 hours",49%
same,reduction of Inotrope Score compared to placebo,"[1]; Group B, by 24 hours",45%
same,average decrease in Inotrope Score per patient compared to placebo,[1]; Group B,51%
same,optimum mean DCA plasma level,"[2]; Example C, Group B, 1 to 6 hour interval",1 mM
same,"Average DCA Plasma Levels, mM at 6 hr",[2]; [10],1.134 mM
same,"Average DCA Plasma Levels, mM at 12 hr",[2]; [10],1.771 mM
same,"Average Optimum Mean of DCA Plasma Levels, mM at 1 hr",[2]; [10],1.0 mM
same,"Average Optimum Mean of DCA Plasma Levels, mM at 6 hr",[2]; [10],0.916 mM
same,"Average Optimum Mean of DCA Plasma Levels, mM at 12 hr",[2]; [10],1.52 mM and 1.523 mM
same,"Average Optimum Mean of DCA Plasma Levels, mM at 24 hr",[2]; [10],2.29 mM and 2.288 mM
same,"Average DCA Plasma Levels, mM at 1 hr",[2]; [11],1.131 mM
same,"Average DCA Plasma Levels, mM at 6 hr",[2]; [11],.894 mM
same,"Average DCA Plasma Levels, mM at 12 hr",[2]; [11],1.427 mM
same,"Average DCA Plasma Levels, mM at 24 hr",[2]; [11],2.231 mM
same,"Average Optimum Mean of DCA Plasma Levels, mM at 1 hr",[2]; [11],1.012 mM
same,"Average Optimum Mean of DCA Plasma Levels, mM at 6 hr",[2]; [11],1.0 mM
same,"Average Optimum Mean of DCA Plasma Levels, mM at 12 hr",[2]; [11],1.0 mM
same,"Average Optimum Mean of DCA Plasma Levels, mM at 24 hr",[2]; [11],1.0 mM
same,Plasma Dichloroacetate Levels,[3],approximately 1 mM
same,Plasma Dichloroacetate Levels,[3]; listed as Dichloroacetate,0.948 ± 0.061 mM
same,side-effects,[4]; patients,"not have significant side-effects, although some patients experience mild drowsiness"
same,adverse effects in previous (pilot) studies,[4]; previous studies,no adverse effects
same,mortality,[5],no mortalities
